# Results as given in US20150246938A1, “NOVEL OLEFIN DERIVATIVE” (SHIONOGI & CO., LTD., priority 2011, published 2015).
# Target: T1, recombinant human ACC2 (Homo sapiens, UniProt O00763)
# T1 construct: a cDNA encoding human ACC2 (27-2458) was cloned from human kidney cDNA library (Clontech); His-tag (N); made in house; host or cells: Sf-9 insect cells (Bac-to-Bac baculovirus)
# Experiment: Measurement of inhibitory activity on human ACC2 (MALDI-TOF MS, acetyl CoA to malonyl CoA conversion)
# Type: biochemical
# Settings: not given
# T1 sequence (O00763 27-2458): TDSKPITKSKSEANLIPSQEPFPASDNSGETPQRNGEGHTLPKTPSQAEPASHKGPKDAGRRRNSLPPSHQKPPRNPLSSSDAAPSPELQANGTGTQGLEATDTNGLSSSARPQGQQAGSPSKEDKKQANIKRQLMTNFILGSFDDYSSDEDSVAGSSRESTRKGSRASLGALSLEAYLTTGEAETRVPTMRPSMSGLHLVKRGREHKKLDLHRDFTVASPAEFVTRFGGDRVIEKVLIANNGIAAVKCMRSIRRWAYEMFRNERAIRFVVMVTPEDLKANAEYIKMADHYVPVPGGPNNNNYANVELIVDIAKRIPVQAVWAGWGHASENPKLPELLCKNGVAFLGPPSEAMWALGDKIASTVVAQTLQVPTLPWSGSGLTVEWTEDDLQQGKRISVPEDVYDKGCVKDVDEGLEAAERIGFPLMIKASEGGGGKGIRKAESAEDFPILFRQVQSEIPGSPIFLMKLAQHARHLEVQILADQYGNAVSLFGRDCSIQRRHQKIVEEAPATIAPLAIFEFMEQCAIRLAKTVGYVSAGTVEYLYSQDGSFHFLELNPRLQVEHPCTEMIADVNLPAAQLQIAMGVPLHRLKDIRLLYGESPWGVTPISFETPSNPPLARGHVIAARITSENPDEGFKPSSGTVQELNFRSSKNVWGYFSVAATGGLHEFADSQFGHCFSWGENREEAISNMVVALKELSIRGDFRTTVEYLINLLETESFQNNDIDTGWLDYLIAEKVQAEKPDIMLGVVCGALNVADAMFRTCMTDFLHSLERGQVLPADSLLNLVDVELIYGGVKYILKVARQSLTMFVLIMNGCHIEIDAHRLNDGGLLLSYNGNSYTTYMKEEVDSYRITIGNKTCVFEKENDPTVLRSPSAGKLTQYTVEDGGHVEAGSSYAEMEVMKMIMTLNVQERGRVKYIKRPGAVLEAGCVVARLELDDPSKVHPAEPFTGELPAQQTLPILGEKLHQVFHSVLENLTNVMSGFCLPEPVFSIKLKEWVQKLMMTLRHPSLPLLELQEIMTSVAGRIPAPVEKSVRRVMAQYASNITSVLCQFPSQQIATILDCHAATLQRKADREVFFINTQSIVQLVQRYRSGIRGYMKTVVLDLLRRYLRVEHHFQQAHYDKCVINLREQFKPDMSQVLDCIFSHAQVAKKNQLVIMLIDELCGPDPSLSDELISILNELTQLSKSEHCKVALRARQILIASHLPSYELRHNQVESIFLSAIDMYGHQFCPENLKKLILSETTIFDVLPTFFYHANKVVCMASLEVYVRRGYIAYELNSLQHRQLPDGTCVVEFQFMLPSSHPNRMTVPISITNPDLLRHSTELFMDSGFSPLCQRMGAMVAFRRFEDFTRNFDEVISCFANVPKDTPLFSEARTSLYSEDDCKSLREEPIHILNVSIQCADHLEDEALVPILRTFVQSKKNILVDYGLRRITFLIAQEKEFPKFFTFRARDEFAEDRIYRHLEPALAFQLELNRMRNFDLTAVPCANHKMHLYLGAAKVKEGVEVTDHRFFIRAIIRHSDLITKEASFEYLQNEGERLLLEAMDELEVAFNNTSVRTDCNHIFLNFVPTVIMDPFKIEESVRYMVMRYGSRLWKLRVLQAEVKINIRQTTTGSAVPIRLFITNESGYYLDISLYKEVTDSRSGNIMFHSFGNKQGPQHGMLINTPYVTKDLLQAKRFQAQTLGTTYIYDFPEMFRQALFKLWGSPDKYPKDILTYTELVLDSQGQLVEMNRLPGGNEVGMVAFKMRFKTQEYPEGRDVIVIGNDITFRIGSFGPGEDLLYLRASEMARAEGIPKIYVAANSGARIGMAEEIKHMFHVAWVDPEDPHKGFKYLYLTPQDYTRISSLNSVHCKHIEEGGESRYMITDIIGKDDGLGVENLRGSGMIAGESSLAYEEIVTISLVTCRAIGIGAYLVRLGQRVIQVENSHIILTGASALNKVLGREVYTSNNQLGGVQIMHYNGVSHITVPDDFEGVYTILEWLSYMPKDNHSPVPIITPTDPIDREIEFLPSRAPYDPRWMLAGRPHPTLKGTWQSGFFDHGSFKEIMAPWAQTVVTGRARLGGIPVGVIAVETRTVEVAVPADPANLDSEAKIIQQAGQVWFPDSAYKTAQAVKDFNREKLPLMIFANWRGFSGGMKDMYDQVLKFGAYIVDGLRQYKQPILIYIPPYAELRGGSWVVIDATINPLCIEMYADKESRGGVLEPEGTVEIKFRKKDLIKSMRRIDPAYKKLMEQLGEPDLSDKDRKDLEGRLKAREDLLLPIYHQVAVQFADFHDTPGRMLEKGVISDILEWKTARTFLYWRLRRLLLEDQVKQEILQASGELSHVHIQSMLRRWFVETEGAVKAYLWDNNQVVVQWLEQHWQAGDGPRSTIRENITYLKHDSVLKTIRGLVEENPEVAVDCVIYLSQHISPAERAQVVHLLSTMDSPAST
row,SMILES,IC50 [nM]
1,CC(=O)N[C@@H](C)/C=C/c1ccc(Oc2ccc(-c3ccc(C(F)(F)F)cn3)cc2Cl)nc1 [Compound I-421],52
2,CCC(F)(F)c1ccc(Oc2ccc(/C=C/[C@H](C)NC(C)=O)cn2)c(Cl)c1 [Compound I-389],24
3,CC(=O)N[C@@H](C)/C=C/c1cnc(Oc2ccc(C(C)(C)C(F)(F)F)cc2Cl)nc1 [Compound I-427],200
4,CCCc1cc(Cl)c(Oc2ccc(/C=C/[C@H](C)NC(N)=O)cn2)c(Cl)c1 [Compound I-387],560

# Next, values leading:
row,IC50 [nM],SMILES
1,2700,CCOc1ccc(Oc2ncc(/C=C/[C@H](C)NC(C)=O)cc2N)c(Cl)c1 [Compound I-430]
2,120,CC(=O)N[C@@H](C)/C=C/c1ccc(Oc2ccc(-c3nc4ccccc4s3)cc2Cl)nc1 [Compound I-415]
3,1300,CCCc1ccc(Oc2ccc(/C=C/[C@H](C)NC(=O)Cc3ccccn3)cn2)c(Cl)c1 [Compound I-422]
4,12,COc1c(OCC2CC2)ccc(Oc2cnc(/C=C/[C@H](C)NC(C)=O)cn2)c1Cl [Compound I-394]
5,47,CCCc1ccc(Oc2ccc(/C=C/[C@H](C)NC(=O)c3ccnc(C(=O)NCCO)c3)cn2)c(Cl)c1 [Compound I-391]
6,1100,CC(=O)N[C@@H](C)/C=C/n1cc(Oc2ccc(OCC3CC3)cc2Cl)cn1 [Compound I-402]

# Same assay, conditions: inhibition activity on human ACC2, Table 79; read-out: IC50
row,IC50 [nM],SMILES
1,82,CC(=O)N[C@@H](C)/C=C/c1cnc(Oc2cccc(OC(C)C)c2C)s1 [Compound I-9]
2,12,CC(=O)N[C@@H](C)/C=C/c1ccc(Oc2ccc(OCC3CC3)nc2)nc1 [Compound I-33]
3,120,C[C@@H](/C=C/c1cnc(Oc2ccc(OCC3CC3)cc2Cl)s1)NC(=O)C1(C#N)CC1 [Compound I-97]
4,30,C[C@@H](/C=C/c1cnc(Oc2ccc(OCC3CC3)cc2Cl)s1)NC(=O)C1CC1 [Compound I-76]
5,460,C[C@@H](/C=C/c1cnc(Oc2ccc(OCC3CC3)cc2Cl)s1)NC(=O)C1CCOCC1 [Compound I-84]
6,950,CC(=O)N[C@@H](C)/C=C/c1cnc(N2CCc3cc(OCC4CC4)ccc32)s1 [Compound I-59]
7,480,COC(=O)c1ccn(CC(=O)N[C@@H](C)/C=C/c2cnc(Oc3ccc(OCC4CC4)cc3Cl)s2)n1 [Compound I-113]
8,160,C[C@@H](/C=C/c1cnc(Oc2ccc(OCC3CC3)cc2Cl)s1)NC(=O)CC(F)(F)F [Compound I-82]
9,830,CC(=O)N[C@@H](C)/C=C/c1cnn(Cc2ccc(OCC3CC3)cc2Cl)c1 [Compound I-63]

# Same assay, conditions: inhibition activity on human ACC2, Table 80; read-out: IC50
row,IC50 [nM],SMILES
1,42,CC(=O)Nc1cc(C(=O)N[C@@H](C)/C=C/c2cnc(Oc3ccc(OCC4CC4)cc3Cl)s2)ccn1 [Compound I-135]
2,320,CCCOc1ccc(Oc2ncc(/C=C/[C@H](C)NC(=O)C3(C#N)CC3)s2)c(Cl)c1 [Compound I-162]
3,600,C[C@@H](/C=C/c1cnn(Cc2ccc(OCC3CC3)cc2Cl)c1)NC(=O)C1CC1 [Compound I-172]
4,1600,Cc1cc(N[C@@H](C)/C=C/c2cnn(Cc3ccc(OCC4CC4)cc3Cl)c2)no1 [Compound I-205]
5,66,C[C@@H](/C=C/c1cnc(Oc2ccc(OCC3CC3)cc2Cl)s1)NC(=O)c1ccnc(-c2ncco2)c1 [Compound I-139]
6,580,C[C@@H](/C=C/c1cnc(Oc2ccc(OCC3CC3)cc2Cl)s1)NC(=O)c1ccnc(OCC(=O)O)c1 [Compound I-248]
7,880,CC(=O)c1ccc(C(=O)N[C@@H](C)/C=C/c2cnc(Oc3ccc(OCC4CC4)cc3Cl)s2)s1 [Compound I-148]
8,81,C[C@@H](/C=C/c1cnc(Oc2ccc(OCC3CC3)cc2Cl)s1)NC(=O)NCC(F)F [Compound I-192]
9,18,C[C@@H](/C=C/c1cnc(Oc2ccc(OCC3CC3)cc2Cl)s1)NC(=O)c1ccnc(C(=O)NCCN(C)C)c1 [Compound I-214]
10,36,C[C@@H](/C=C/c1cnc(Oc2ccc(OCC3CC3)cc2Cl)s1)NC(=O)c1ccnc(NCCN2CCCC2)c1 [Compound I-244]
11,69,CCOc1ccc(Oc2ccc(/C=C/[C@H](C)Nc3cc(C)on3)cn2)c(Cl)c1 [Compound I-203]
12,69,CC(C)ONC(=O)c1cc(C(=O)N[C@@H](C)/C=C/c2cnc(Oc3ccc(OCC4CC4)cc3Cl)s2)ccn1 [Compound I-216]
13,18,C[C@@H](/C=C/c1cnc(Oc2ccc(OCC3CC3)cc2Cl)s1)NC(=O)C(F)F [Compound I-177]
14,2700,CCN1Cc2ccc(C(=O)N[C@@H](C)/C=C/c3cnc(Oc4ccc(OCC5CC5)cc4Cl)s3)cc2C1=O [Compound I-154]
15,1400,CCN1CCN(CCC(=O)N[C@@H](C)/C=C/c2cnc(Oc3ccc(OCC4CC4)cc3Cl)s2)CC1 [Compound I-124]
16,490,CCCOc1ccc(Oc2ncc(/C=C/[C@H](C)NC(=O)c3ccnc(N4CCOCC4)c3)s2)c(Cl)c1 [Compound I-165]
17,2300,Cc1nc(C)c(-c2cc(C(=O)N[C@@H](C)/C=C/c3cnc(Oc4ccc(OCC5CC5)cc4Cl)s3)ccn2)s1 [Compound I-138]

# Same assay, conditions: inhibition activity on human ACC2, Table 82; read-out: IC50
row,SMILES,IC50 [nM]
1,CC(=O)N[C@@H](C)/C=C/c1ccc(Oc2ccc(C3=CCN(C)CC3)cc2Cl)nc1 [Compound I-353],2600
2,CC(=O)N[C@@H](C)/C=C/c1ccc(Oc2ccc(-c3cnoc3)cc2Cl)nc1 [Compound I-349],6600
3,CC(=O)N[C@@H](C)/C=C/c1ccc(Oc2ccc(C3=CCC4(CC3)CC4)c(Cl)c2)nc1 [Compound I-378],16
4,CCCc1cccc(Oc2ccc(/C=C/[C@H](C)NC(C)=O)cn2)n1 [Compound I-330],3900
5,CCCc1ccc(Oc2ccc(/C=C/[C@H](C)NC(C)=O)cc2)nc1 [Compound I-368],110
6,CC(=O)N[C@@H](C)/C=C/c1ccc(Oc2ccc(C(C)(F)F)cc2Cl)nc1 [Compound I-328],35
7,CC(=O)N[C@@H](C)/C=C/c1ccc(Oc2ccc(SCC(C)C)cc2Cl)nc1 [Compound I-364],13
8,CCCc1ccc(Oc2ccc(/C=C/[C@H](C)NC(C)=O)cn2)nc1 [Compound I-336],2000
9,CCCc1ccc(Oc2ccc(/C=C/[C@H](C)NC(C)=O)cn2)c(C)n1 [Compound I-322],490
10,CCCCc1ccc(Oc2ccc(/C=C/[C@H](C)NC(C)=O)cn2)c(Cl)c1 [Compound I-337],23

# Results, then the compound that gave them:
row,IC50 [nM],SMILES
1,57,CCCc1ccc(Oc2ccc(/C=C/[C@H](C)NC(=O)COC(C)=O)cn2)c(Cl)c1 [Compound I-375]
2,15,CC(=O)NC(C)/C(F)=C/c1ccc(Oc2ccc(OCC3CC3)cc2Cl)nc1 (centres unmarked) [Compound I-366]
3,440,CC(=O)N[C@@H](C)/C=C/c1ccc(Oc2ccc(C(=O)NCC3CC3)cc2Cl)nc1 [Compound I-357]

# Same assay, conditions: inhibition activity on human ACC2, Table 84; read-out: IC50
row,SMILES,IC50 [nM]
1,CCCc1cc(Oc2ccc(/C=C/[C@H](C)NC(C)=O)cn2)ccc1Cl [Compound I-485],130
2,CC(=O)N[C@@H](C)/C=C/c1ccc(Oc2ccc3nc(C(F)(F)F)sc3c2)nc1 [Compound I-481],13
3,CC(=O)N[C@@H](C)/C=C/c1ccc(Oc2ccc3c(c2)OC(F)(F)C(F)(F)O3)nc1 [Compound I-482],8.1
4,CC(=O)N[C@@H](C)/C=C/c1ccc(Oc2cnc(N3CCC(F)CC3)nc2)nc1 [Compound I-520],75
5,CC(=O)N[C@@H](C)/C=C/c1ccc(Oc2cc(C)c(C)cc2Cl)nc1 [Compound I-457],310
6,CCCc1cc(Cl)c(Oc2ccc(/C=C/[C@H](C)NC(C)=O)cn2)cc1Cl [Compound I-458],26
7,CC(=O)N[C@@H](C)/C=C/c1ccc(Oc2ccc3c(c2)CCCO3)nc1 [Compound I-444],42
8,CC(=O)N[C@@H](C)/C=C/c1ccc(Oc2ccc3c(c2Cl)CCC3(F)F)nc1 [Compound I-466],16
9,CCc1nc2ccc(Oc3ccc(/C=C/[C@H](C)NC(C)=O)cn3)cc2o1 [Compound I-495],21
10,CC(=O)N[C@@H](C)/C=C/c1ccc(Oc2ccc3nc(C)sc3c2C#N)nc1 [Compound I-509],23
11,CCC(F)(F)c1ccc(Oc2cnc(/C=C/[C@H](C)NC(C)=O)cn2)c(Cl)c1 [Compound I-473],39
12,CC(=O)N[C@@H](C)/C=C/c1ccc(Oc2ccc3c(C)noc3c2)nc1 [Compound I-456],450

# Now from value to compound:
row,IC50 [nM],SMILES
1,210,CCCc1ccc(Oc2ccc(/C=C/[C@H](C)NC(C)=O)nc2)c(Cl)c1 [Compound I-496]
2,25,CC(=O)N[C@@H](C)/C=C/c1cnc(Oc2ccc(OCC3CC3)cc2Cl)c(F)c1 [Compound I-447]
3,68,CC(=O)N[C@@H](C)/C=C/c1ccc(Oc2ccc(Oc3ccccn3)cc2Cl)nc1 [Compound I-463]
4,37,CC(=O)N[C@@H](C)/C=C/c1ccc(Oc2ccc(-c3ncc(F)cn3)cc2Cl)nc1 [Compound I-454]
5,120,CC(=O)N[C@@H](C)/C=C/c1ccc(Oc2ccc(Oc3ccncc3)cc2Cl)nc1 [Compound I-465]

# Same assay, conditions: inhibition activity on human ACC2, untitled table (Table 81); read-out: IC50
row,SMILES,IC50 [nM]
1,CC(=O)NC(C)/C(C)=C/c1ccc(Oc2ccc(O)cc2Cl)nc1 (centres unmarked) [Compound I-283],3200
2,CC(=O)N[C@@H](C)/C=C/c1cnn(Cc2ccc(OCC3CC3)c(Cl)c2Cl)c1 [Compound I-262],660
3,CCNC(=O)c1cc(C(=O)N[C@@H](C)/C=C/c2cnn(Cc3ccc(F)c(C(F)(F)F)c3)c2)ccn1 [Compound I-309],2800
4,COc1cc(F)cc(Oc2ccc(/C=C/[C@H](C)NC(C)=O)cn2)c1 [Compound I-257],160

# Now from value to compound:
row,IC50 [nM],SMILES
1,450,CC(=O)N[C@@H](C)/C=C/c1ccc(Oc2ccc(N3CCCC3=O)cc2Cl)nc1 [Compound I-272]
2,48,CCNC(=O)c1cc(C(=O)N[C@@H](C)/C=C/c2cnn(Cc3ccc(Oc4ccccc4)cc3)c2)ccn1 [Compound I-307]
3,110,CC(=O)N[C@@H](C)/C=C/c1ccc(Oc2ccc(-c3ncco3)cc2Cl)nc1 [Compound I-268]
4,18,CC(=O)N[C@@H](C)/C=C/c1ccc(Oc2ccc(CCC3CC3)cc2Cl)nc1 [Compound I-287]
